Laboratory results taken from patent US20050215548A1 (Cyclacel Limited, priority 2002, published 2005).

How the values were obtained:
sarcoma cell lines = experiment: 72-h MTT panel, average sarcomas; assay type: cell-based; settings: Homo sapiens, average over sarcoma cell lines, read-out: Anti-proliferative activity, 72-h MTT IC50, Average sarcomas
Experimental: (§1) Representative bisarylsulfonamide compounds were tested on a panel of transformed and non-transformed human cell lines, using a standard 72-h MTT cytotoxicity assay [Haselsberger K et al, ibid].
(§2) This differential selectivity further supports the notion that the bisarylsulfonamides modulate cellular HDM2 function. It is known that HDM2 amplification is particularly common in soft tissue sarcomas and osteosarcomas [Momand J et al, ibid; Bartel F, Meye A, Wurl P, Kappler M, Bache M, Lautenschlager C, Grunbaum U, Schmidt H, Taubert H; Int. J. Cancer 2001; 95: 168-175].

[1] = system: transformed human cell lines; experiment: 72-h MTT panel, average transformed; assay type: cell-based; settings: average over transformed cell lines, read-out: Anti-proliferative activity, 72-h MTT IC50, Average transformed
Experimental: as §1, §2

WI38 = experiment: 72-h MTT cytotoxicity assay, WI38; assay type: cell-based; settings: Homo sapiens, WI-38, 72 h; WI38, Lung fibroblasts; read-out: Anti-proliferative activity, 72-h MTT IC50
Experimental: as §1

Messa-Dx5 = experiment: 72-h MTT cytotoxicity assay, Messa-Dx5; assay type: cell-based; settings: Homo sapiens, MES-SA/Dx5, 72 h; Messa-Dx5, Uterus sarcoma; read-out: Anti-proliferative activity, 72-h MTT IC50
Experimental: as §1

NaCat = experiment: 72-h MTT cytotoxicity assay, NaCat; assay type: cell-based; settings: Keratinocyte, Human keratinocytes, read-out: Anti-proliferative activity, 72-h MTT IC50
Experimental: as §1

IMR90 = experiment: 72-h MTT cytotoxicity assay, IMR90; assay type: cell-based; settings: Homo sapiens, IMR-90, 72 h; IMR90, Lung fibroblasts; read-out: Anti-proliferative activity, 72-h MTT IC50
Experimental: as §1

[2] = system: non-transformed human cell lines; experiment: 72-h MTT panel, average non-transformed; assay type: cell-based; settings: average over non-transformed cell lines, read-out: Anti-proliferative activity, 72-h MTT IC50, Average non-transformed
Experimental: as §1, §2

DU145 = experiment: 72-h MTT cytotoxicity assay, DU145; assay type: cell-based; settings: Homo sapiens, DU-145, 72 h; DU145, Prostate carcinoma; read-out: Anti-proliferative activity, 72-h MTT IC50
Experimental: as §1

SJSA-1 = experiment: Combination treatment with cisplatin or etoposide, MTT, SJSA-1; assay type: cell-based, human
From the text: It is well established that radiotherapy and most current forms of chemotherapy cause extensive genetic damage and induction of the p53-dependent apoptotic pathway, which determines the important role of this tumor suppressor protein in cancer therapy. HDM2, on the other hand, as a transcriptional product and negative regulator pf p53, would destabilise p53 and diminish its pro-apoptotic function. Inhibitors of the p53-HDM2 negative feedback loop (e.g. compounds disrupting the p53-HDM2 complex) are expected to synergise with cytotoxic agents for induction of p53 and subsequent apoptosis. […] Both chemotherapeutic agents were used in the concentration range of 100-0.19 μM.

[3] = system: AGS, H1299, MCF7 or SJSA1 cells; experiment: Cell morphology (cell rounding); assay type: cell-based, human; settings: five times IC50
From the text: Equal amounts of cell lysate were separated by SDS-PAGE and analysed by immunoblotting using the indicated antibodies. An estimation of the extent of cell rounding is indicated above each lane. The arrow indicates the position of a 85-kDa cleavage product of PARP, indicative of apoptosis. (B) The effect of compound 2 on the levels of the cell cycle proteins in AGS cells (wild-type 53). […] Equal amounts of cell lysate were separated by SDS-PAGE and analysed by immunoblotting using the indicated antibodies. An estimation of the extent of cell rounding is indicated above each lane. (C) The effect of negative control compound (refer Example 10), compound 2, cisplatin, and anisomycin on the levels of key proteins in MCF7 cells. […] Cisplatinum and anisomycin (a transcription inhibitor) treatments were with 50 μM or 37 μM, respectively. Cells were harvested at various time points; afterwards lysates were prepared and separated by SDS-PAGE and analysed by immunoblotting. The proteins detected are indicated. The extent of rounded or floating cells and the percentage viable cells were assessed. […] Equal amounts of cell lysate were separated by SDS-PAGE and analysed by immunoblotting using a range of antibodies. An estimation of the extent of cell rounding is indicated above each lane. […] SJSA1 cells were treated with 5 times [IC50] of compound 2 and collected at the indicated time points. Equal amounts of cell lysate were separated by SDS-PAGE and analysed by immunoblotting using a range of antibodies. An estimation of the extent of cell rounding is indicated above each lane.
Cells were treated with 5 times [IC50] of compound 2 and collected at various time points. The percentage of rounded cells was counted before cells were trypsinised and counted for cell viability using trypan blue.
Cells were lysed and equal amounts were analysed by SDS-polyacrylamide gel electrophoresis (SDS-PAGE) and immunoblotting. […] The reduction in E2F-1 levels correlated with reduction in E2F transcriptional activity as determined by an E2F-dependent luciferase reporter assay (refer Example 6).

H1299 cells = experiment: Caspase activity (casp ACE assay), H1299; assay type: cell-based, human; settings: five times the IC50
Experimental: In more detail: (A) Cells were treated with […] [IC50] of compound 2 or cisplatinum and collected at the time points indicated. Cell lysates were prepared, the caspase activity was determined using the casp ACE assay and values were plotted on a graph. (B) Cells were treated with 5 times [IC50] of compound 2 or cisplatinum and collected at the time points indicated. AGS cells were also incubated with compound 2 in the presence of a caspase inhibitor Z-VAD.fmk. Cell lysates were prepared, the caspase activity was determined using the casp ACE assay and values were plotted on a graph.
To characterise the apoptosis-inducing properties of bisarylsulfonamides caspase ⅓ activty was measured. AGS or H1299 cells were treated with a low concentration of compound 2 or cisplatin corresponding to twice the IC50 value (FIG. 6A). Morphological changes were detected in 10-20% of cells by 72 hours corresponding to an induction of caspase activity first detected at 48 hours, increasing by 72 hours. We also treated AGS and H1299 cells with higher concentrations corresponding to five times the IC50 (FIG. 6B). In this experiment we included a […], Z-VAD.fmk to determine the caspase responsible.

Structure (SMILES) | IC50 (sarcoma cell lines) [µM] | IC50 [1] [µM] | IC50 (WI38) [µM] | IC50 (Messa-Dx5) [µM] | IC50 (NaCat) [µM] | IC50 (IMR90) [µM] | IC50 [2] [µM] | IC50 (DU145) [µM] | IC50 of etoposide, fold lower in cells pre-treated with 2 (SJSA-1; 2 added 6 hours before etoposide) [fold] | potency increase of cisplatin (SJSA-1; 2 added prior to the treatment with cisplatin) [fold] | IC50 (SJSA-1; Homo sapiens, MTT, 72 hours, Table 5, read-out: IC50, agent alone) [µM] | cell rounding [3] | caspase activity (H1299 cells)
O=[N+]([O-])c1cc(S(=O)(=O)Nc2ccc(F)cc2)sc1Cl [Compound 3, 5-Chloro-4-nitrothiophene-2-sulfonic acid (4-fluorophenyl)amide] | 12.1 ± 3.8 | 6.9 ± 5 | 21.1 | 12.1 | 10.5 | 19.8 | 18.7 ± 3.1 | 3.6 | – | – | – | – | –
O=[N+]([O-])c1cc(S(=O)(=O)Nc2ccc(Cl)cc2)sc1Cl [Compound 2, 5-Chloro-4-nitrothiophene-2-sulfonic acid (4-chlorophenyl)-amide] | 10.2 ± 2.7 | 5.7 ± 3.9 | 22.7 | 9.5 | 9.3 | 23.1 | 21 ± 3.1 | 3.1 | 726 | 357 | 14 | Rapid cell rounding was detected in all cell types tested | detected by four hours
O=[N+]([O-])c1cc(S(=O)(=O)Nc2ccc(C(F)(F)F)cc2)sc1Cl [Compound 6, 5-Chloro-4-nitrothiophene-2-sulfonic acid (4-trifluoromethylphenyl)amide] | 13.7 ± 3.1 | 8.4 ± 5.1 | 30 | 15.5 | 10.6 | 29.8 | 27.1 ± 4.9 | 6.1 | – | – | – | – | –
